Target: PDEV (UniProt O76074)
Test: In vitro determination of Ki for phosphodiesterase inhibitors (PDEV)
Format: biochemical, rabbit and human tissues
Settings: 30 nM 3H-cGMP, 30° C. for 90 minutes; Ki is equivalent to the IC50 value
Method: Cyclic Nucleotide Phosphodiesterase (PDE) Assay
PDEV was isolated from rabbit and human tissues according to the protocol described by Boolell et al. (Boolell, M., Allen, M. J., Ballard, S. A., Ge[o-Attee, Muirhead, G. J., Naylor, A. M., Osterloh, I. H., and Gingell, C) in International Journal of Impotence Research 1996 8, 47-52 with minor modifications.
Briefly, rabbit or human tissues were homogenized in an ice-cold buffer solution containing 20 mM HEPES (pH 7.2), 0.25M sucrose, 1 mM EDTA, and 1 mM PMSF. The homogenates were centrifuged at 100,000 g for 60 minutes at 4° C. The supernatant was filtered through […] filter and loaded on a Pharmacia Mono Q anion exchange column (1 ml bed volume) that was equilibrated with 20 mM HEPES, 1 mM EDTA and 0.5 mM PMSF. After washing out unbound proteins, the enzymes were eluted with a linear gradient of 100-600 mM NaCl in the same buffer (35 to 50 ml total, depending on the tissue. Enzymes from the skeletal muscle, corpus cavernosum, retina, heart and platelet were eluted with 35, 40, 45, 50, and 50 ml respectively.) The column was run at a flow rate of 1 ml/min and 1 ml fractions were collected. The fractions comprising various PDE activities were pooled separately and used in later studies. […]
In Vitro Determination of Ki for Phosphodiesterase Inhibitors
The assays were adapted to a 96-well format. Phosphodiesterase was assayed in 5 mM MgCl2, 15 mM Tris HCl (pH 7.4), 0.5 mg/ml bovine serum albumin, 30 nM ^3H-cGMP and test compound at various concentrations. The amount of enzyme used for each reaction was such that less than 15% of the initial substrate was converted during the assay period. For all measurements, the test compound was dissolved and diluted in 100% DMSO (2%DMSO in assay). The total volume of the assay was 100 μl. The reaction mixture was incubated at 30° C. for 90 minutes. The reaction was stopped by boiling for 1 minute and then immediately cooled by transfer to an ice bath. To each well was then added 25 μl 1 mg/ml snake venom (Ophiophagus hannah) and the reaction mixture incubating at 30° C. for 10 minute. The reaction was stopped by the addition of 1 ml Bio-Rad AG1-X2 resin slurry (1:3). An aliquot of 200 μl was taken and counted by liquid scintillation.
The % inhibition of the maximum substrate conversion (by the enzyme in the absence of inhibitor) was calculated for each test compound concentration. Using GraphPad Prism's nonlinear regression analysis (sigmoidal dose response), the % inhibition vs log of the test compound concentration was plotted to determine the IC50. Under conditions where substrate concentration<<Km of the enzyme (Km=substrate concentration at which half of the maximal velocity of the enzyme is achieved), Ki is equivalent to the IC50 value.
Following the procedures as described in Examples 10 and 11 herein, representative compounds of the instant invention were tested for PDEV and PDEVI activity. PDEV inhibitory activities for these compounds are presented as Ki values (nM) in the Table 4.
For `CN1CC(=O)N2[C@@H](c3ccc4c(c3)OCO4)c3[nH]c4ccccc4c(=O)c3[C@@H]2C1=O` [Compound 4, 11-Benzo[1,3]dioxol-5-yl-3-methyl-2,3,4a,11-tetrahydro-10H-3,10,11a-triaza-benzo[b]fluorene-1,4,5-trione], the Ki was 80 nM.
For `O=C1[C@H]2c3c([nH]c4ccccc4c3=O)[C@@H](c3ccc4c(c3)OCO4)N2C(=O)CN1Cc1ccccn1` [Compound 10, 11-Benzo{1,3]dioxol-5-yl-3-pyridin-2-ylmethyl-2,3,4a,11-tetrahydro-10H-3,10,11a-triaza-benzo[b]fluorene-1,4,5-trione], the Ki was 63 nM.
`CN1CC(=O)N2[C@H](c3ccc4c(c3)CCO4)c3[nH]c4ccccc4c(=O)c3[C@@H]2C1=O` [Compound 1, 11-(2,3-Dihydro-benzofuran-5-yl)-3-methyl-2,3,4a,11-tetrahydro-10H-3,10,11a-triaza-benzo[b]fluorene-1,4,5-trione] showed a Ki of 7 nM.
`CN1CC(=O)N2[C@H](c3ccc4c(c3)CCO4)c3[nH]c4ccccc4c(=O)c3[C@H]2C1=O` [Compound 2, 11-(2,3-Dihydro-benzofuran-5-yl)-3-methyl-2,3,4a,11-tetrahydro-10H-3,10,11a-triaza-benzo[b]fluorene-1,4,5-trione] showed a Ki of 69 nM.
For `CN1CC(=O)N2[C@@H](c3ccc4c(c3)OCO4)c3[nH]c4ccccc4c(=O)c3[C@H]2C1=O` [Compound 3, 11-Benzo[1,3]dioxol-5-yl-3-methyl-2,3,4a,11-tetrahydro-10H-3,10,11a-triaza-benzo[b]fluorene-1,4,5-trione], the Ki was 17 nM.
For `CN1CC(=O)N2[C@H](c3ccc4c(c3)OCO4)c3[nH]c4ccccc4c(=O)c3[C@@H]2C1=O` [Compound 8, 11-Benzo[1,3]dioxol-5-yl-3-methyl-2,3,4a,11-tetrahydro-10H-3,10,11a-triaza-benzo[b]fluorene-1,4,5-trione], the Ki was 14 nM.
Work on `O=C1[C@H]2c3c([nH]c4ccccc4c3=O)[C@@H](c3ccc4c(c3)OCO4)N2C(=O)CN1Cc1ccccc1` [Compound 5, 11-Benzo[1,3]dioxol-5-yl-3-benzyl-2,3,4a,11-tetrahydro-10H-3,10,11a-triaza-benzo[b]fluorene-1,4,5-trione] yielded a Ki of 123 nM.
Work on `CN1CCC(=O)N2[C@H](c3ccc4c(c3)OCO4)c3[nH]c4ccccc4c(=O)c3[C@@H]2C1=O` [Compound 7, 11-Benzo[1,3]dioxol-5-yl-7-methyl-5b,8,9,12-tetrahydro-7H,11H-7,10a,12-triaza-naphtho[2,3-a]azulene-5,6,10-trione] yielded a Ki of 148 nM.
In the case of `CN1CC(=O)N2C(C1=O)c1c([nH]c3ccccc3c1=O)[C@H]2c1ccc2c(c1)OCO2` (stereo in doubt) [Compound 9, 11-Benzo[1,3]dioxol-5-yl-3-methyl-2,3,4a,11-tetrahydro-10H-3,10,11a-triaza-benzo[b]fluorene-1,4,5-trione], the Ki is reported as 48 nM.

Test system: not listed separately
Test: In vivo testing following the procedure of Carter et al.
Settings: J. Urology 1998, 160, 242-246
Method: Following the procedure disclosed by Carter et al., (Carter, A. J., Ballard, S. A., and Naylor, A. M.) in The Journal of Urology 1998, 160, 242-246, compound #8 was tested as active for in vivo activity.
For `CN1CC(=O)N2[C@H](c3ccc4c(c3)OCO4)c3[nH]c4ccccc4c(=O)c3[C@@H]2C1=O` [Compound 8, 11-Benzo[1,3]dioxol-5-yl-3-methyl-2,3,4a,11-tetrahydro-10H-3,10,11a-triaza-benzo[b]fluorene-1,4,5-trione], the in vivo activity was “active”.

Test system: not given
Test: not given
Settings: use of sildenafil; non-selective effects on a variety of tissues; cited from earlier work
For `CCCc1nn(C)c2c(=O)[nH]c(-c3cc(S(=O)(=O)N4CCN(C)CC4)ccc3OCC)nc12` [sildenafil, 5-[2-ethoxy-5-(4-methylpiperazin-1-ylsulphonyl)phenyl]-1-methyl-3-n-propyl-6,7-dihydro-1H-pyrazolo[4,3-d]pyrimidin-7-one], the undesirable side effects is given as “headache, flushing and disrupted color vision”.
